# Source: patent publication US9149038B2, “4-amino-6-(heterocyclic)picolinates and 6-amino-2-(heterocyclic)pyrimidine-4-carboxylates and their use as herbicides” (Dow AgroSciences LLC, priority 2013, dated 2015)
# Like-named read-outs stand apart in the source and are kept apart here.
# Columns and labels:
# [1] = system: Key Broadleaf Weed and Crop Species; assay: Post-Emergent Test II: postemergent herbicidal activity, visual rating after 14 d (Table 7); type: in vivo; settings: post-emergence, 336 h; for pest or weed control at 35 g/ha: 35 g ai/ha; for pest or weed control at 70 g/ha: 70 g ai/ha; for pest or weed control at 140 g/ha: 140 g ai/ha
# Summary of the method: (§1)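 Plants were raised in a greenhouse for 7-21 d and treated once at the first or second true leaf stage. Compounds, dissolved in 97:3 acetone:DMSO then diluted into an aqueous acetone/isopropanol/crop oil/Triton X-155 carrier, were applied by overhead track sprayer at 187 L/ha. After 14 d with subirrigation, injury was scored visually from 0 (none) to 100 (complete kill).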
# [2] = system: Key Grass and Sedge Weeds as well as Grass Crops; assay: Post-Emergent Test II: postemergent herbicidal activity, visual rating after 14 d (Table 8); type: in vivo; settings: post-emergence, 336 h; for pest or weed control at 35 g/ha: 35 g ai/ha; for pest or weed control at 70 g/ha: 70 g ai/ha; for pest or weed control at 140 g/ha: 140 g ai/ha
# Summary of the method: as §1
# [3] = lambsquarters (Chenopodium album), read-out: Visual Growth Reduction (%) 14 Days After Application CHEAL
# [4] = oilseed rape, canola (Brassica napus), read-out: Visual Growth Reduction (%) 14 Days After Application BRSNN
# [5] = redroot pigweed (Amaranthus retroflexus), read-out: Visual Growth Reduction (%) 14 Days After Application AMARE
# [6] = sunflower (Helianthus annuus), read-out: Visual Growth Reduction (%) 14 Days After Application HELAN
# [7] = velvetleaf (Abutilon theophrasti), read-out: Visual Growth Reduction (%) 14 Days After Application ABUTH
# [8] = wild poinsettia (Euphorbia heterophylla), read-out: Visual Growth Reduction (%) 14 Days After Application EPHHL
# [9] = barnyardgrass (Echinochloa crus-galli), read-out: Visual Growth Reduction (%) 14 Days After Application ECHCG
# [10] = giant foxtail (Setaria faberi), read-out: Visual Growth Reduction (%) 14 Days After Application SETFA
# [11] = maize, corn (Zea mays), read-out: Visual Growth Reduction (%) 14 Days After Application ZEAMX
# [12] = rice (Oryza sativa), read-out: Visual Growth Reduction (%) 14 Days After Application ORYSA
# [13] = wheat, spring (Triticum aestivum), read-out: Visual Growth Reduction (%) 14 Days After Application TRZAS
# [14] = yellow nutsedge (Cyperus esculentus), read-out: Visual Growth Reduction (%) 14 Days After Application CYPES
Compound,"pest or weed control at 35 g/ha [1, 3] [%]","pest or weed control at 70 g/ha [1, 3] [%]","pest or weed control at 140 g/ha [1, 3] [%]","pest or weed control at 35 g/ha [1, 4] [%]","pest or weed control at 70 g/ha [1, 4] [%]","pest or weed control at 140 g/ha [1, 4] [%]","pest or weed control at 35 g/ha [1, 5] [%]","pest or weed control at 70 g/ha [1, 5] [%]","pest or weed control at 140 g/ha [1, 5] [%]","pest or weed control at 35 g/ha [1, 6] [%]","pest or weed control at 70 g/ha [1, 6] [%]","pest or weed control at 140 g/ha [1, 6] [%]","pest or weed control at 35 g/ha [1, 7] [%]","pest or weed control at 70 g/ha [1, 7] [%]","pest or weed control at 140 g/ha [1, 7] [%]","pest or weed control at 35 g/ha [1, 8] [%]","pest or weed control at 70 g/ha [1, 8] [%]","pest or weed control at 140 g/ha [1, 8] [%]","pest or weed control at 35 g/ha [2, 9] [%]","pest or weed control at 70 g/ha [2, 9] [%]",other results
COC(=O)c1nc(-c2ccc3c(c2F)OC(F)(F)O3)c(F)c(N)c1Cl [Compound 10],85 to 94,85 to 94,95 to 100,75 to 84,85 to 94,85 to 94,85 to 94,95 to 100,95 to 100,85 to 94,85 to 94,85 to 94,85 to 94,95 to 100,95 to 100,95 to 100,95 to 100,95 to 100,95 to 100,95 to 100,"pest or weed control at 140 g/ha [2, 9]: 95 to 100%; pest or weed control at 35 g/ha [2, 10]: 75 to 84%; pest or weed control at 70 g/ha [2, 10]: 95 to 100%; pest or weed control at 140 g/ha [2, 10]: 95 to 100%; pest or weed control at 35 g/ha [2, 11]: 60 to 74%; pest or weed control at 70 g/ha [2, 11]: 75 to 84%; pest or weed control at 140 g/ha [2, 11]: 75 to 84%; pest or weed control at 35 g/ha [2, 12]: 0 to 29%; pest or weed control at 70 g/ha [2, 12]: 0 to 29%; pest or weed control at 140 g/ha [2, 12]: 0 to 29%; pest or weed control at 35 g/ha [2, 13]: 45 to 59%; pest or weed control at 70 g/ha [2, 13]: 60 to 74%; pest or weed control at 140 g/ha [2, 13]: 60 to 74%; pest or weed control at 35 g/ha [2, 14]: 95 to 100%; pest or weed control at 70 g/ha [2, 14]: 95 to 100%; pest or weed control at 140 g/ha [2, 14]: 95 to 100%"
Nc1c(F)c(-c2ccc(I)c3c2OC(F)(F)O3)nc(C(=O)O)c1Cl [Compound 81],85 to 94,85 to 94,85 to 94,75 to 84,85 to 94,95 to 100,95 to 100,95 to 100,95 to 100,85 to 94,85 to 94,85 to 94,0 to 29,60 to 74,75 to 84,0 to 29,0 to 29,0 to 29,0 to 29,0 to 29,"pest or weed control at 140 g/ha [2, 9]: 0 to 29%; pest or weed control at 35 g/ha [2, 10]: 0 to 29%; pest or weed control at 70 g/ha [2, 10]: 0 to 29%; pest or weed control at 140 g/ha [2, 10]: 0 to 29%; pest or weed control at 35 g/ha [2, 11]: 0 to 29%; pest or weed control at 70 g/ha [2, 11]: 0 to 29%; pest or weed control at 140 g/ha [2, 11]: 0 to 29%; pest or weed control at 35 g/ha [2, 12]: 0 to 29%; pest or weed control at 70 g/ha [2, 12]: 0 to 29%; pest or weed control at 140 g/ha [2, 12]: 0 to 29%; pest or weed control at 35 g/ha [2, 13]: 0 to 29%; pest or weed control at 70 g/ha [2, 13]: 0 to 29%; pest or weed control at 140 g/ha [2, 13]: 0 to 29%; pest or weed control at 35 g/ha [2, 14]: 0 to 29%; pest or weed control at 70 g/ha [2, 14]: 0 to 29%; pest or weed control at 140 g/ha [2, 14]: 0 to 29%"
COC(=O)c1nc(-c2ccc3c(c2F)OC(F)(F)O3)c(Cl)c(N)c1Cl [Compound 4],0 to 29,0 to 29,0 to 29,0 to 29,0 to 29,0 to 29,0 to 29,0 to 29,0 to 29,0 to 29,45 to 59,60 to 74,0 to 29,0 to 29,0 to 29,0 to 29,0 to 29,0 to 29,0 to 29,0 to 29,"pest or weed control at 140 g/ha [2, 9]: 0 to 29%; pest or weed control at 35 g/ha [2, 10]: 0 to 29%; pest or weed control at 70 g/ha [2, 10]: 0 to 29%; pest or weed control at 140 g/ha [2, 10]: 0 to 29%; pest or weed control at 35 g/ha [2, 11]: 0 to 29%; pest or weed control at 70 g/ha [2, 11]: 0 to 29%; pest or weed control at 140 g/ha [2, 11]: 0 to 29%; pest or weed control at 35 g/ha [2, 12]: 0 to 29%; pest or weed control at 70 g/ha [2, 12]: 0 to 29%; pest or weed control at 140 g/ha [2, 12]: 0 to 29%; pest or weed control at 35 g/ha [2, 13]: 0 to 29%; pest or weed control at 70 g/ha [2, 13]: 0 to 29%; pest or weed control at 140 g/ha [2, 13]: 0 to 29%; pest or weed control at 35 g/ha [2, 14]: 0 to 29%; pest or weed control at 70 g/ha [2, 14]: 0 to 29%; pest or weed control at 140 g/ha [2, 14]: 0 to 29%"
COC(=O)c1nc(-c2ccc3c(c2)OC(F)(F)O3)c(F)c(N)c1OC [Compound 24],0 to 29,0 to 29,0 to 29,0 to 29,0 to 29,0 to 29,0 to 29,0 to 29,0 to 29,0 to 29,0 to 29,0 to 29,0 to 29,0 to 29,0 to 29,75 to 84,95 to 100,95 to 100,60 to 74,85 to 94,"pest or weed control at 140 g/ha [2, 9]: 95 to 100%; pest or weed control at 35 g/ha [2, 10]: 0 to 29%; pest or weed control at 70 g/ha [2, 10]: 0 to 29%; pest or weed control at 140 g/ha [2, 10]: 0 to 29%; pest or weed control at 35 g/ha [2, 11]: 60 to 74%; pest or weed control at 70 g/ha [2, 11]: 75 to 84%; pest or weed control at 140 g/ha [2, 11]: 75 to 84%; pest or weed control at 35 g/ha [2, 12]: 0 to 29%; pest or weed control at 70 g/ha [2, 12]: 0 to 29%; pest or weed control at 140 g/ha [2, 12]: 0 to 29%; pest or weed control at 35 g/ha [2, 13]: 0 to 29%; pest or weed control at 70 g/ha [2, 13]: 0 to 29%; pest or weed control at 140 g/ha [2, 13]: 30 to 44%; pest or weed control at 35 g/ha [2, 14]: 95 to 100%; pest or weed control at 70 g/ha [2, 14]: 95 to 100%; pest or weed control at 140 g/ha [2, 14]: 95 to 100%"
